Here are results for five compounds from publication PMC8826350, “Structural feature-driven pattern analysis for multitarget modulator landscapes” (Bioinformatics, 2021).

The target in test [1] is T1, ABCB1 (Homo sapiens, UniProt P08183). Nature of the test: Calcein AM assay (plate reader), ABCB1-overexpressing A2780/ADR cells.
Test [2] deals with T2, ABCC1 (Homo sapiens, UniProt P33527). The test is described as follows: Calcein AM assay (plate reader), ABCC1-overexpressing H69AR cells. The note with it: for IC50±SEM ABCC1 Calcein AM: H69AR cells, curve top constrained to reference 7; for mode of modulation of ABCC1 (in words): initial screening at 10 µM, calcein AM assay.
T2 sequence (P33527 whole entry): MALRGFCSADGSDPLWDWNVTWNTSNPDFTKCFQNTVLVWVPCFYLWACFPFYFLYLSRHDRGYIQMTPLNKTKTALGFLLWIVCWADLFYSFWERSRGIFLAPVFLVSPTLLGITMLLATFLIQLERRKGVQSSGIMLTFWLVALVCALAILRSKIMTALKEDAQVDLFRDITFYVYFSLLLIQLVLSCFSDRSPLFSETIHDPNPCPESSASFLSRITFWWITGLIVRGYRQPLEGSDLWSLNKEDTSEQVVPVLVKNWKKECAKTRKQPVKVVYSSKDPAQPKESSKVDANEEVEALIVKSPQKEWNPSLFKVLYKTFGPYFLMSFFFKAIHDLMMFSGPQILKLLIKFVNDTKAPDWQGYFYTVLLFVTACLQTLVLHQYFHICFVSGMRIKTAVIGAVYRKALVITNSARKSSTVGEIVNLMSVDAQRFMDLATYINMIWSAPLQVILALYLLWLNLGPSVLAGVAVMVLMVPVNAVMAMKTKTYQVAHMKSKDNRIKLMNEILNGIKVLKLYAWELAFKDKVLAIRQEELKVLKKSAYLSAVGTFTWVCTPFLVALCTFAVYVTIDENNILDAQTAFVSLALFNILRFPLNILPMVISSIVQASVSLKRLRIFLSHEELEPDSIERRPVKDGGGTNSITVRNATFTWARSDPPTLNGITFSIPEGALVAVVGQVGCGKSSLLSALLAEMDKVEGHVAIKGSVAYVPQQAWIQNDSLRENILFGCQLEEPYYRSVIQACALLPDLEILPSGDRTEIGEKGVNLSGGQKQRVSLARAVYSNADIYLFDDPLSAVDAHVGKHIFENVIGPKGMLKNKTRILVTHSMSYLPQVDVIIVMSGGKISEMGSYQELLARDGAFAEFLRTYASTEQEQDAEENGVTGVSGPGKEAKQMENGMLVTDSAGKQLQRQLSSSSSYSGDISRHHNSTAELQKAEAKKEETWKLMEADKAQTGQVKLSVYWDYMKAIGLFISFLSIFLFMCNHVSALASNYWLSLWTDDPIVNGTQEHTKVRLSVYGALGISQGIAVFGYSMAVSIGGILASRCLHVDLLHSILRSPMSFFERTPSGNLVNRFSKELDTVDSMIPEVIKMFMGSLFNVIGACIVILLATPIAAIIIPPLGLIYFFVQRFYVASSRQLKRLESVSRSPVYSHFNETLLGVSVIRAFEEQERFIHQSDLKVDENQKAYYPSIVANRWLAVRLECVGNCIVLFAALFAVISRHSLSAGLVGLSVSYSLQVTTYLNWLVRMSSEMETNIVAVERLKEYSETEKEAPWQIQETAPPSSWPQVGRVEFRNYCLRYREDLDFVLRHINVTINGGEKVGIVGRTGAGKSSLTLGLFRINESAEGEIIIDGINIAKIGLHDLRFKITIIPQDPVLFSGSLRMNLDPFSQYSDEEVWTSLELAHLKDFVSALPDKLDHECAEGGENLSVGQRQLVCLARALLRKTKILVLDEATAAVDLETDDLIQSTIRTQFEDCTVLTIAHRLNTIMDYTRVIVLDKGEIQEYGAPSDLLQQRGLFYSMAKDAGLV
Test [3] deals with T3, ABCG2 (Homo sapiens, UniProt Q9UNQ0).
T3 sequence (Q9UNQ0 1-655): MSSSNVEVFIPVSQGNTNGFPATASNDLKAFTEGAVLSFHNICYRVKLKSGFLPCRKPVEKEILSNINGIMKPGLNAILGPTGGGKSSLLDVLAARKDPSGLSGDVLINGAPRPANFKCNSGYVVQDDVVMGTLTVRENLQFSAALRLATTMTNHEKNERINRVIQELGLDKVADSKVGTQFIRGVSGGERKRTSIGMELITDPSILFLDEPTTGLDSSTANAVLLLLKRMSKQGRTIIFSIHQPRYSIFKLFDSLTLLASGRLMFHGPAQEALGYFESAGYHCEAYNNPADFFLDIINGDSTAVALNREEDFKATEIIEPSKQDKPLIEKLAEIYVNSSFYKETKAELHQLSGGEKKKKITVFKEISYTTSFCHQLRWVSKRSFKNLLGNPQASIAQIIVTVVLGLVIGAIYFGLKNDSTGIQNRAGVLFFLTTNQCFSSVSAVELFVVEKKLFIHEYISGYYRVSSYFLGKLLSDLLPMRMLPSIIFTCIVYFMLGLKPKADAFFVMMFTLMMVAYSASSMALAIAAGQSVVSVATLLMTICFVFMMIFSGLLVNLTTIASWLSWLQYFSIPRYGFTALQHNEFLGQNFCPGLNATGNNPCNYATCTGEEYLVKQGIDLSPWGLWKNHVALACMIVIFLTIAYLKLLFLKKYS
The test is described as follows: Pheophorbide A assay (flow cytometry), ABCG2-overexpressing MDCK II BCRP cells. Type of test: cell-based. On the set-up: host or cells: MDCK II. The note with it: curve top constrained to reference 8, read-out: IC50±SEM ABCG2 Pheophorbide A.

Test [4] concerns the target T3, ABCG2. Nature of the test: Hoechst 33342 assay (plate reader), MDCK II BCRP cells.
Method: The fluorescence accumulation at an excitation wavelength of 360 nm and an emission wavelength of 460 nm was measured over a period of 120 min in 60 s intervals using a Paradigm microplate reader [Beckman Coulter (Brea, CA, USA)]. The average steady-state fluorescence value was calculated for each well and correlated to the used compound concentration.
The target in test [5] is T2, ABCC1. Nature of the test: Daunorubicin accumulation assay (flow cytometry), H69AR cells. On the technique in general: A flow cytometer gives signals particle by particle.
In test [6] the target is T1, ABCB1. Nature of the test: Daunorubicin accumulation assay (flow cytometry), A2780/ADR cells.

T1 sequence (P08183 whole entry): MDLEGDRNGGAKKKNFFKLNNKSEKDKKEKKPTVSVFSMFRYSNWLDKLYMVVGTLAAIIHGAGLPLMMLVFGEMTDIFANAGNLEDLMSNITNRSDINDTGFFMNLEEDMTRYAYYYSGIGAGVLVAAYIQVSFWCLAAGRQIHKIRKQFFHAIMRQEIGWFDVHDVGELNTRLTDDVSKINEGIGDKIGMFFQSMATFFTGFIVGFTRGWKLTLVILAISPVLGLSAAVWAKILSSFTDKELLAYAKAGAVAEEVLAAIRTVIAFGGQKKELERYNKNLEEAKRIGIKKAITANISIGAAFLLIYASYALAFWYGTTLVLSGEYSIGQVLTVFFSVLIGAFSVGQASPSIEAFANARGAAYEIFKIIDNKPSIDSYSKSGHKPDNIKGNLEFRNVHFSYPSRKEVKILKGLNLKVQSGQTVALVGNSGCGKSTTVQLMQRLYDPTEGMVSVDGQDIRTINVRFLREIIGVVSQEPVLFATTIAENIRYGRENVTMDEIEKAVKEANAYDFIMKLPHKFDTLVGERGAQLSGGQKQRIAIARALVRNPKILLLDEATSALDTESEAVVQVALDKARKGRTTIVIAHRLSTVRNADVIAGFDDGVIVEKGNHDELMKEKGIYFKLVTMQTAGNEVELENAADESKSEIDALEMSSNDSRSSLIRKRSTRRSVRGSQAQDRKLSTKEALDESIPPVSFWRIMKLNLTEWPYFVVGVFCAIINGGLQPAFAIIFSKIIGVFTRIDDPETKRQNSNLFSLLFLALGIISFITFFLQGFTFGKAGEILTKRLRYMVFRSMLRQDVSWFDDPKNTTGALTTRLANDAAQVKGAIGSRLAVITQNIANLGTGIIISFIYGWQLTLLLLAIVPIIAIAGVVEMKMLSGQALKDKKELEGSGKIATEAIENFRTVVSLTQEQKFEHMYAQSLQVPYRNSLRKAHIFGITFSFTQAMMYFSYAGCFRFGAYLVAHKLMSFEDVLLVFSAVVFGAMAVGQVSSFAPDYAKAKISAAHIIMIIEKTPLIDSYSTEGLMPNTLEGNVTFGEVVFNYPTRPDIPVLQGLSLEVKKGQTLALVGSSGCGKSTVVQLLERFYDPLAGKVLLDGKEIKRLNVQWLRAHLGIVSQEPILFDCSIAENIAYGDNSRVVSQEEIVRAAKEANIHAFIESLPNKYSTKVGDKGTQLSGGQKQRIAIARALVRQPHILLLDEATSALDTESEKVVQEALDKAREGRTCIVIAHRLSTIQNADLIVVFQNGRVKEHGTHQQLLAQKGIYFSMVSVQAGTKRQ

`Cc1ccccc1Cn1c(N2CCN(CCc3ccccc3)CC2)nc2c1c(=O)[nH]c(=O)n2C` [Compound 1]: the IC50 at ABCB1 [1] was 22.7 ± 5.4 µM. On ABCC1 [2], the “IC50±SEM ABCC1 Calcein AM” value is reported as “n.i” and the “mode of modulation of ABCC1 (in words)” value was “apparent slight activation of ABCC1”. For the same compound, the IC50 on ABCG2 [3] amounted to 7.89 ± 0.44 µM.
For `Cn1c(=O)n(C)c2cc(S(=O)(=O)N3CCN(C(c4ccccc4)c4ccccc4)CC3)ccc21` [Compound 2] the same measures were 8.26 ± 0.54 µM, “n.i”, “apparent slight activation of ABCC1” and 25.8 ± 12.1 µM.
Regarding `Cc1onc(-c2ccccc2Cl)c1C(=O)N1CCN(Cc2nnnn2-c2ccc(F)cc2)CC1` [Compound 3], the IC50 at ABCG2 [4] was 37.9 ± 12.5 µM; at ABCC1 [2], 38.6 ± 2.2 µM; on ABCG2 [3], 15.9 ± 1.1 µM; at ABCC1 [5] it was 38.7 ± 15.2 µM.
For the compound `O=C(C1c2ccccc2Oc2ccccc21)N1CCN(Cc2nnnn2-c2ccc(F)cc2)CC1` [Compound 4], the values for the IC50 at ABCB1 [1] and on ABCG2 [3] were 15.5 ± 1.3 µM and 15.1 ± 1.2 µM, respectively. At ABCC1 [2], the “IC50±SEM ABCC1 Calcein AM” value was “n.i”.
For the compound `COc1ccc(OCc2noc(CN3CCN(C(=O)C45CC6CC(CC(C6)C4)C5)CC3)n2)cc1` [Compound 5], the IC50 at ABCB1 [6] is 80.2 ± 30.1 µM; against ABCG2 [4], 28.5 ± 6.1 µM; at ABCB1 [1], 25.6 ± 1.1 µM; at ABCC1 [2] it was 60.9 ± 14 µM; at ABCG2 [3], 12.4 ± 1.3 µM; against ABCC1 [5] it was 57 ± 6.5 µM.

The term IC50 denotes the concentration needed to halve the response being measured.
